Measured values from patent US7932042B1, “Methods and compositions for the treatment of psychotic disorders through the identification of the olanzapine poor response predictor genetic signature” (Suregene, LLC, priority 2010, dated 2011).
Marks after values point to notes of the source that are not given here.

Experiments:
[1] = tested on: patients suffering from schizophrenia; assay: Diagnostic performance of the OPRP test in the CATIE study for worsening symptoms (Delta PANSS ≧ 0); format: in vivo, human
Source text: Several different measures of diagnostic performance can be used for comparing dichotomous outcomes. Two important metrics include percent positive agreement (PPA), a substitute for sensitivity, and percent negative agreement (PNA), a substitute for specificity.

[2] = tested on: patients suffering from schizophrenia; assay: CATIE study: change in total PANSS (LOCF) by drug arm, segmented by OPRP genetic signature status; format: in vivo, human; parameters: key to Mean difference olanzapine vs. named drug, CATIE unsegemented / Mean difference olanzapine vs. named drug, CATIE OPRP+: difference in change in total PANSS score (LOCF); decrease = better response; details: for Mean difference olanzapine vs. named drug, CATIE OPRP+: positive = olanzapine inferior; for DELTA PANSS % (mean change in PANSS score from baseline to LOCF): more negative = greater improvement
Experimental: The CATIE study, a large federally funded clinical trial designed to assess the efficacy of antipsychotics in a real world setting, is a valuable resource for determining the role of genes in baseline psychopathology and drug response (Lieberman et al., 2005; Stroup et al., 2003). […] Additionally, whole genome SNP genotyping was performed for roughly half of the trial participants (Sullivan et al., 2008). Genotype and phenotype data for the CATIE trial were recently made available to qualified researchers through the NIMH Center for Collaborative Genetic Studies on Mental Disorders. The sample consisted of a total of 738 patients. For the present study, the inventors assigned OPRP status to 628 subjects, including 411 subjects of self-reported European ancestry and 217 subjects of self-reported African ancestry. Further details on the patient population are described in the study by Sullivan and coworkers (Sullivan et al., 2008). […] The design of the CATIE study has been described in detail by others (Lieberman et al., 2005; Stroup et al., 2003). […] Instead of entering into Phase II of the trial, subjects who switched from perphenazine entered Phase IB. […] Subjects who failed Phase IB then entered Phase II. A total of 738 subjects consented to provide DNA for genetic study. […] Only retrospective genetic analyses, judged to be exempt from human studies requirements by an IRB, were conducted in the current study. For the genetic analyses presented herein, the inventors combined and evaluated drug response data for both Phase I and Phase IB of the CATIE study. All tested patients were studied using well established clinical endpoints comparing baseline, intermediate, and last observation carried forward (LOCF) for the PANSS scores using CATIE data. LOCF analysis is a commonly used clinical endpoint for clinical trials for neuropsychiatric drugs, with particular changes in PANSS scores being used to indicate clinically significant response (Leucht et al., 2009). Using the clinical data from the CAIE trial, the inventors derived several different metrics used for quantifying response in clinical trials of antipsychotic medications. […] The greater the decrease in PANSS score, the better the clinical response. The most direct measure of clinical response is absolute change in PANSS score. In addition to absolute change, the improvement is often reported as a percentage change from baseline PANSS score. […] To examine the relationship of genotypes to drug response the inventors used the publicly available PLINK software (Purcell et al., 2007; available on the world wide web at pngu.mgh.harvard.edu/purcell/[…] Helix tree (Version 6.4.1; Golden Helix, Bozeman, Mont.). The inventors used Last observation Carry Forward (LOCF) delta PANSS values as a measure of response to antipsychotic treatment. […] The inventors refined the test further by conducting association analysis on using only those subjects that comprised the TT genotype of […]. […] Presence of the TT or TC genotypes of […] in individuals that comprised the TT genotype at […] indicates OPRP positive status. […] As mentioned previously, the mean change in absolute or percent PANSS provides an important measure of efficacy in patients undergoing antipsychotic treatments. Indeed, many pivotal trials in the psychosis field used absolute and/or percentage change in PANSS Score as the primary endpoint (Leucht et al., 2009). […] Therefore, in addition to examining a categorical definition of clinically significant response, the inventors determined the impact of segmentation by OPRP genetic signature status on the quantitative measure of clinical improvement-delta PANSS for LOCF.

[3] = tested on: patients suffering from schizophrenia; details: weighted mean difference in PANSS score (absolute); negative = olanzapine superior; cited from earlier work
[4] = tested on: patients suffering from schizophrenia; details: population not segmented by OPRP status; negative = greater reduction in PANSS; cited from earlier work
[5] = tested on: patients suffering from schizophrenia; details: vs first generation antipsychotics; Davis et al. (2003); cited from earlier work
[6] = delta PANSS, negative = olanzapine superior
[7] = olanzapine OPRP positive versus drug OPRP positive
[8] = olanzapine-treated OPRP+ group minus named comparator drug OPRP+ group, positive = poorer response to olanzapine

| Structure (SMILES) | Non-Worsen (number of subjects) ([1]; OPRP Positive) | Worsen (number of subjects, Delta PANSS ≧ 0) ([1]; OPRP Positive) | Number of individuals with change in total PANSS (LOCF) ≦−10% (responders) ([2]; OPRP Negative) | Number of individuals with change in total PANSS (LOCF) ≧−10% ([2]; OPRP Negative) | Number of individuals with delta PANSS (LOCF) ≦0% ([2]; OPRP Negative) | Number of individuals with delta PANSS (LOCF) ≧0% (worsening symptoms) ([2]; OPRP Negative) | Responders (change in PANSS of ≦−10%) ([2]; OPRP Negative) | Worsening (delta PANSS ≧0%) ([2]; OPRP Negative) | Number of individuals with change in total PANSS (LOCF) ≦−10% (responders) ([2]; OPRP Positive) | Number of individuals with change in total PANSS (LOCF) ≧−10% ([2]; OPRP Positive) | Number of individuals with delta PANSS (LOCF) ≦0% ([2]; OPRP Positive) | Number of individuals with delta PANSS (LOCF) ≧0% (worsening symptoms) ([2]; OPRP Positive) | Responders (change in PANSS of ≦−10%) ([2]; OPRP Positive) | Worsening (delta PANSS ≧0%) ([2]; OPRP Positive) | Mean difference olanzapine vs. named drug, CATIE unsegemented [2, 6] | Mean difference olanzapine vs. named drug, CATIE OPRP+ ([2]; delta PANSS) | Mean difference (95% CI) in delta PANSS [2, 8] | Mean difference olanzapine vs. named drug, Meta-analysis [3] | Effect Size vs. Placebo [4] | Effect Size vs. FGA [5] | other results |
| --- | --- | --- | --- | --- | --- | --- | --- | --- | --- | --- | --- | --- | --- | --- | --- | --- | --- | --- | --- | --- | --- |
| OCCOCCN1CCN(C2=Nc3ccccc3Sc3ccccc32)CC1 [Quetiapine] | 9 | 9 | 48 | 99 | 95 | 62 | 33%^+++ | 42%^+++ | 4 | 14 | 9 | 9 | 22% | 50% | −6.2 | 5.5 | 5.5 (−4.1 to 15.0) | −3.7 | −0.42 | 0.01 | Mean difference olanzapine vs. named drug, CATIE OPRP− [2, 6]: −8.4; CATIE Effect Size [2, 7]: 0.3^b |
| Cc1cc2c(s1)Nc1ccccc1N=C2N1CCN(C)CC1 [Olanzapine] | 8 | 18 | 73 | 66 | 113 | 26 | 53%^* | 19%^* | 1 | 25 | 8 | 18 | 4% | 69% | – | – | – | – | – | – | Non-Worsen (number of subjects) ([1]; OPRP Negative): 113; Worsen (number of subjects, Delta PANSS ≧ 0) ([1]; OPRP Negative): 26; DELTA PANSS % (mean change in PANSS score from baseline to LOCF) ([2]; OPRP Negative subjects): −11.6%; DELTA PANSS % (mean change in PANSS score from baseline to LOCF) ([2]; OPRP Positive subjects): 4.3%; DELTA PANSS % (mean change in PANSS score from baseline to LOCF) ([2]; OPRP Positive subjects, listed as olanzapine): +4.3%; CATIE Effect Size ([2]; olanzapine OPRP positive versus olanzapine OPRP negative): 1.0^a; CATIE Effect Size ([2]; olanzapine OPRP positive versus olanzapine OPRP negative, listed as olanzapine): 1.0; Mean difference (95% CI) in delta PANSS ([2]; olanzapine OPRP+ minus olanzapine OPRP−): 15.9 (9.7 to 22.1); Effect size (mean difference / standard deviation) ([2]; olanzapine OPRP+ vs olanzapine OPRP−): 1.0 |
| OCCN1CCN(CCCN2c3ccccc3Sc3ccc(Cl)cc32)CC1 [Perphenazine] | 9 | 3 | 39 | 71 | 65 | 45 | 35%^+ | 41%^+++ | 5 | 7 | 9 | 3 | 42%^^ | 25%^ | – | – | 12 (2.0 to 22.0) | – | – | – | – |
| O=C1Cc2cc(CCN3CCN(c4nsc5ccccc45)CC3)c(Cl)cc2N1 [Ziprasidone] | 7 | 4 | 16 | 53 | 35 | 34 | 23%^++++ | 49%^++++ | 2 | 9 | 7 | 4 | 18% | 36% | −4.9 | 4.8 | 4.8 (−2.7 to 12.3) | −8.3 | −0.48 | −0.04 | CATIE Effect Size [2, 7]: 0.2^b |
| Cc1nc2n(c(=O)c1CCN1CCC(c3noc4cc(F)ccc34)CC1)CCCC2 [Risperidone] | 13 | 7 | – | – | – | – | – | – | – | – | – | – | – | – | – | – | – | −1.9 | −0.59 | −0.25 | – |
